One series can be described thus: Solubility (solvent listed in compound tables). To be noted: solvent named, Table 3. It is filed as physicochemical.
Take `Clc1ccc2c(N3CCN(c4nccc(Nc5ccc(Br)cc5)n4)CC3)ccnc2c1` [ATH 226]: the SOLUBILITY entry is “DMSO”. Same read-out and setting: the value for `CCN1CCN(c2nc(C)cc(NCCCNc3ccnc4cc(Cl)ccc34)n2)CC1` [SM 497] was “DMSO”. On the same count and under the same terms, the value for `OCCNc1nc(NCCNc2ccnc3cc(Cl)ccc23)nc(N2CCCCC2)n1` [SM 365] was “DMSO”. Same read-out and setting: the value for `Cc1cc(N2CCN(c3ccnc4cc(Cl)ccc34)CC2)nc(N2CCOCC2)n1` [ATH 239] was “DMSO”. For `OCCCNc1nc(NCCNc2ccnc3cc(Cl)ccc23)nc(N2CCCCC2)n1` [SM 370], the SOLUBILITY result is “DMSO”. Same read-out and setting: to `COc1ccc(Nc2nc(NCCCNc3ccnc4cc(Cl)ccc34)nc(N3CCOCC3)n2)cc1` [SM 337] belongs “DMSO”; to `COc1cc(Nc2nc(NC(C)CNc3ccnc4cc(Cl)ccc34)nc(N3CCOCC3)n2)cc(OC)c1` (stereo not shown) [SM 130], “DMSO”; to `OCCCCNc1nc(NCCCCNc2ccnc3cc(Cl)ccc23)nc(N2CCOCC2)n1` [SM 362], “DMSO”. Same read-out and setting: to `COc1ccc(Nc2nc(NCCNc3c4ccc(Cl)cc4nc4ccc(OC)cc34)nc(N3CCN(c4ccccc4)CC3)n2)cc1` [ATH 164] belongs “DMSO”; to `OCCCNc1nc(NCCCCNc2ccnc3cc(Cl)ccc23)nc(N2CCCCC2)n1` [SM 372], “DMSO”. Same read-out and setting: to `Clc1ccc2c(NCCNc3nc(Cl)cc(Cl)n3)ccnc2c1` [SM 695B] belongs “DMSO”; to `CCN1CCN(c2cc(Cl)nc(NCCNc3ccnc4cc(Cl)ccc34)n2)CC1` [SM 704], “DMSO”.

For `Clc1ccc2c(NCCCNc3nc(Cl)cc(N4CCCCC4)n3)ccnc2c1` [SM 715], the SOLUBILITY entry was “DMSO”. As to `Clc1ccc2c(NCCCNc3cc(Cl)nc(N4CCOCC4)n3)ccnc2c1` [SM 712], the SOLUBILITY entry is recorded as “DMSO”. As to `Clc1ccc2c(N3CCN(c4ccnc(NC5CCCCC5)n4)CC3)ccnc2c1` [ATH 236], the SOLUBILITY result is reported as “DMSO”. Still for that read-out and setting: to `COc1cc(Nc2nc(NCCNc3c4ccc(Cl)cc4nc4ccc(OC)cc34)nc(N3CCCCC3)n2)cc(OC)c1` [ATH 158] belongs “DMSO”. Still for that read-out and setting: the value for `Clc1ccc2c(N3CCN(c4ccnc(N5CCOCC5)n4)CC3)ccnc2c1` [ATH 228] was “DMSO”; that for `Fc1ccc(Nc2ccnc(N3CCN(c4ccnc5cc(Cl)ccc45)CC3)n2)cc1` [ATH 223] was “DMSO”; that for `Cc1cc(NCCNc2ccnc3cc(Cl)ccc23)nc(N2CCCCC2)n1` [SM 490] was “DMSO”. The same measure, in the same setting: to `Clc1ccc2c(N3CCN(c4ccnc(Cl)n4)CC3)ccnc2c1` [ATH 218] belongs “DMSO”. Take `COc1ccc(Nc2nc(NCCCCNc3ccnc4cc(Cl)ccc34)nc(N3CCOCC3)n2)cc1` [SM 356]: the SOLUBILITY result is given as “DMSO”.

In the case of `Clc1ccc2c(NCCCNc3cc(Cl)nc(Cl)n3)ccnc2c1` [SM 710A], the SOLUBILITY entry was “DMSO”. The same measure, in the same setting: to `Clc1ccc2c(NCCNc3cc(Cl)nc(N4CCOCC4)n3)ccnc2c1` [SM 696] belongs “DMSO”. Same read-out and setting: the value for `Clc1ccc2c(NCCCNc3nc(Nc4ccccc4)nc(N4CCOCC4)n3)ccnc2c1` [SM 341] was “DMSO”; that for `COc1cc(Nc2nc(NCCCNc3c4ccc(Cl)cc4nc4ccc(OC)cc34)nc(N3CCCCC3)n2)cc(OC)c1` [ATH 159] was “DMSO”. As for `Clc1ccc2c(NCCNc3ccnc(Cl)n3)ccnc2c1` [SM 728A], the SOLUBILITY entry is “DMSO”. On to `Clc1ccc2c(NCCNc3cc(Cl)nc(N4CCCCC4)n3)ccnc2c1` [SM 697], for which the SOLUBILITY result is on record as “DMSO”. Still for that read-out and setting: the value for `COc1ccc(Nc2nc(NCCNc3c4ccc(Cl)cc4nc4ccc(OC)cc34)nc(N(C)C)n2)cc1` [ATH 165] was “DMSO”; that for `Cc1cc(NCCCCNc2ccnc3cc(Cl)ccc23)nc(N2CCN(C)CC2)n1` [SM 501] was “DMSO”; that for `CC(CNc1ccnc2cc(Cl)ccc12)Nc1nc(N2CCOCC2)nc(N2CCOCC2)n1` (stereo not shown) [SM 143] was “DMSO”. Turning to `Clc1ccc2c(NCCNc3nc(Nc4ccccc4)nc(Nc4ccccc4)n3)ccnc2c1` [SM 129], the SOLUBILITY entry is reported as “DMSO”. `CCN(CC)c1nc(Cl)nc(NCCNc2ccnc3cc(Cl)ccc23)n1` [SM 137]: the SOLUBILITY result is reported as “DMSO”. On the same count and under the same terms, the value for `Cc1cc(NCCCNc2ccnc3cc(Cl)ccc23)nc(N2CCOCC2)n1` [SM 493] was “DMSO”; that for `Cc1cc(NCCCCCCNc2ccnc3cc(Cl)ccc23)nc(N2CCN(C)CC2)n1` [SM 507] was “DMSO”; that for `Cc1cc(Cl)nc(NCCCCNc2ccnc3cc(Cl)ccc23)n1` [SM 498B] was “DMSO”. As to `CCN1CCN(c2nccc(NCCCNc3ccnc4cc(Cl)ccc34)n2)CC1` [SM 723], the SOLUBILITY result is “DMSO”.

Take `COc1ccc2nc3cc(Cl)ccc3c(NCCNc3nc(N4CCN(c5ccccc5)CC4)nc(N4CCN(c5ccccc5)CC4)n3)c2c1` [ATH 178]: the SOLUBILITY entry is recorded as “DMSO”.

`Cc1cc(NCCCNc2ccnc3cc(Cl)ccc23)nc(N2CCCCC2)n1` [SM 485]: the SOLUBILITY result was “DMSO”. Same read-out and setting: to `Clc1ccc2c(NCCCNc3nccc(N4CCOCC4)n3)ccnc2c1` [SM 725] belongs “DMSO”; to `CCN1CCN(c2ccnc(NCCCNc3ccnc4cc(Cl)ccc34)n2)CC1` [SM 727], “DMSO”; to `Cc1cc(NCCCNc2ccnc3cc(Cl)ccc23)nc(Cl)n1` [SM 484A], “DMSO”.

Consider `COc1cc(Nc2cc(C)nc(N3CCN(c4ccnc5cc(Cl)ccc45)CC3)n2)cc(OC)c1` [ATH 244], for which the SOLUBILITY result is given as “DMSO”. The same measure, in the same setting: the value for `Clc1ccc2c(NCCNc3nc(Cl)nc(NCCNc4ccnc5cc(Cl)ccc45)n3)ccnc2c1` [SM 133] was “DMSO”. Still for that read-out and setting: the value for `CN1CCN(c2cc(Cl)nc(NCCNc3ccnc4cc(Cl)ccc34)n2)CC1` [SM 703] was “DMSO”; that for `OCCCNc1nc(NCCCNc2ccnc3cc(Cl)ccc23)nc(N2CCOCC2)n1` [SM 351] was “DMSO”. Still for that read-out and setting: to `OCCNc1nc(NCCCCNc2ccnc3cc(Cl)ccc23)nc(N2CCOCC2)n1` [SM 345] belongs “DMSO”; to `OCCCCNc1nc(NCCNc2ccnc3cc(Cl)ccc23)nc(N2CCOCC2)n1` [SM 360], “DMSO”; to `Clc1ccc(Nc2ccnc(N3CCN(c4ccnc5cc(Cl)ccc45)CC3)n2)cc1` [ATH 227], “DMSO”.

Turning to `CN1CCN(c2ccnc(NCCCNc3ccnc4cc(Cl)ccc34)n2)CC1` [SM 726], the SOLUBILITY result is given as “DMSO”. Same read-out and setting: the value for `CCN1CCN(c2nc(Cl)cc(NCCCNc3ccnc4cc(Cl)ccc34)n2)CC1` [SM 714] was “DMSO”. `Clc1ccc2c(NCCCNc3ccnc(N4CCCCC4)n3)ccnc2c1` [SM 720]: the SOLUBILITY entry was “DMSO”.

Staying with this series, now noted: solvent named, Table 4.
Turning to `Clc1ccc2c(NCCNc3nccc(Nc4ccc(Br)cc4)n3)ccnc2c1` [DKG809], the SOLUBILITY result was “DMSO”. Still for that read-out and setting: the value for `Cc1cc(Nc2ccc(Cl)cc2)nc(NCCCNc2ccnc3cc(Cl)ccc23)n1` [DKG846] was “DMSO”; that for `COc1ccc(Nc2cc(C)nc(NCCCCNc3ccnc4cc(Cl)ccc34)n2)cc1` [DKG839] was “DMSO”.

Turning to `Fc1ccc(Nc2ccnc(NCCCCNc3ccnc4cc(Cl)ccc34)n2)cc1` [DKG819], the SOLUBILITY result is on record as “DMSO”.

As for `Clc1ccc2c(NCCCNc3nccc(Nc4ccccc4)n3)ccnc2c1` [DKG822], the SOLUBILITY entry is listed as “DMSO”. Consider `Clc1ccc(Nc2ccnc(NCCCCNc3ccnc4cc(Cl)ccc34)n2)cc1` [DKG815], for which the SOLUBILITY result is “DMSO”.

Take `Cc1ccc(Nc2cc(C)nc(NCCNc3ccnc4cc(Cl)ccc34)n2)cc1` [DKG857]: the SOLUBILITY entry is “DMSO”. Same read-out and setting: the value for `Cc1cc(Nc2ccc(F)cc2)nc(NCCCCNc2ccnc3cc(Cl)ccc23)n1` [DKG855] was “DMSO”; that for `Clc1ccc2c(NCCCNc3nccc(Nc4ccc(Br)cc4)n3)ccnc2c1` [DKG810] was “DMSO”.

With `Clc1ccc2c(NCCNc3nccc(Nc4ccccc4)n3)ccnc2c1` [DKG821], the SOLUBILITY result is given as “DMSO”. Take `Clc1ccc2c(NCCCCNc3nccc(Nc4ccc(Br)cc4)n3)ccnc2c1` [DKG811]: the SOLUBILITY result is reported as “DMSO”. On the same count and under the same terms, the value for `Cc1ccc(Nc2cc(C)nc(NCCCCNc3ccnc4cc(Cl)ccc34)n2)cc1` [DKG859] was “DMSO”; that for `COc1ccc(Nc2ccnc(NCCNc3ccnc4cc(Cl)ccc34)n2)cc1` [DKG825] was “DMSO”; that for `COc1cc(Nc2ccnc(NCCCNc3ccnc4cc(Cl)ccc34)n2)cc(OC)c1` [DKG830] was “DMSO”. Same read-out and setting: to `COc1cc(Nc2ccnc(NCCCCNc3ccnc4cc(Cl)ccc34)n2)cc(OC)c1` [DKG831] belongs “DMSO”; to `Cc1ccc(Nc2ccnc(NCCNc3ccnc4cc(Cl)ccc34)n2)cc1` [DKG805], “DMSO”.

Still in this series, the particulars now being: solvents listed for the compound.
Regarding `OCCNc1nccc(NCCCCNc2ccnc3cc(Cl)ccc23)n1` [MT1-156], the SOLUBILITY entry is listed as “MeOH, DMSO”.

In the case of `Cc1cc(NCCCNc2ccnc3cc(Cl)ccc23)nc(NCCCO)n1` [MT1-146], the SOLUBILITY entry is listed as “MeOH, DMSO”. `Cc1cc(NCCNc2ccnc3cc(Cl)ccc23)nc(NCCCCCO)n1` [MT1-190]: the SOLUBILITY result is recorded as “MeOH, DMSO”. The same measure, in the same setting: to `OCCCNc1nccc(NCCCNc2ccnc3cc(Cl)ccc23)n1` [MT1-121] belongs “MeOH, DMSO”. Take `Cc1cc(NCCNc2ccnc3cc(Cl)ccc23)nc(NCCCCCCO)n1` [MT1-191]: the SOLUBILITY entry was “MeOH, DMSO”. The same measure, in the same setting: the value for `Cc1cc(NCCNc2ccnc3cc(Cl)ccc23)nc(NCCCCO)n1` [MT1-189] was “MeOH, DMSO”. Still for that read-out and setting: the value for `OCCCCCNc1nccc(NCCCCNc2ccnc3cc(Cl)ccc23)n1` [MT1-162] was “MeOH, DMSO”; that for `OCCCCCCNc1nccc(NCCCNc2ccnc3cc(Cl)ccc23)n1` [MT1-132] was “MeOH, DMSO”; that for `Cc1cc(NCCCCNc2ccnc3cc(Cl)ccc23)nc(NCCCCO)n1` [MT1-194] was “MeOH, DMSO”. Still for that read-out and setting: the value for `OCCCCNc1nccc(NCCCCNc2ccnc3cc(Cl)ccc23)n1` [MT1-158] was “MeOH, DMSO”. For `Cc1cc(NCCCNc2ccnc3cc(Cl)ccc23)nc(NCCCCCO)n1` [MT1-148], the SOLUBILITY entry was “MeOH, DMSO”. On the same count and under the same terms, the value for `Cc1cc(NCCCCNc2ccnc3cc(Cl)ccc23)nc(NCCCO)n1` [MT1-193] was “MeOH, DMSO”.

The values are drawn from patent US11026943B2, “Aminoquinoline derivatives and uses thereof” (UNIVERSITY OF DELHI, priority 2012, dated 2021).
